Where two headings read alike, the source gives them in different places.
Key:
E. cloacae = assay: microbe, parasite or virus in culture; assay type: cell-based
Procedure: (§1) The antibacterial activity of the cephalosporins alone was included to ascertain the level of potentiation by the partnered BLI. BLIs were tested at a fixed concentration of 4 μg/ml in all combinations except cefepime-tazobactam, where tazobactam was fixed at a concentration of 8 μg/ml ([38]).
(§2) The in vitro antibacterial activity of the β-lactams alone or in combination with the BLIs was determined in cation-adjusted Mueller-Hinton broth (CAMHB) microdilution assays according to CLSI recommendations ([51]). […] The inocula for the broth microdilution assays were prepared by the broth culture method ([51]).

[1] = test system: P. aeruginosa clinical isolates; assay: microbe, parasite or virus in culture; assay type: cell-based, Pseudomonas aeruginosa
Procedure: as §1, §2

[2] = test system: E. coli DH5α producing individual β-lactamases; assay: Broth microdilution MIC in engineered strains (BLI fixed at 4 μg/ml); assay type: cell-based, Escherichia coli
Procedure: The spectrum of antibacterial activity of cefepime-taniborbactam and the breadth of inhibitory activity of this next-generation cyclic boronate BLI were assessed in 34 engineered E. coli strains each overproducing an individual β-lactamase and directly compared to those of the clinically approved agent ceftazidime-avibactam. In this manner, the antibacterial activity of the BL-BLI combinations relative to that of the partnered cephalosporins alone provided a quantitative measure of β-lactam potentiation that directly reflects the levels of inhibition of β-lactamase function achieved by addition of BLI. The BLI concentration was fixed at 4 μg/ml, as described in Materials and Methods.
The isogenic strains were used to establish a spectrum of inhibitory activity against 34 β-lactamases that were engineered into E. coli DH5α cells carrying chromosomal AmpC (ESC-1), a non-ESBL enzyme unable to hydrolyze these third- or fourth-generation cephalosporins. […]. The DNA fragments containing the promoter, the signal sequence, and each β-lactamase-coding gene were synthesized and cloned into pTwist Chlor High Copy in DH5α at Twist Bioscience. The individual expression plasmids along with their GenBank accession numbers are listed in Table S2 in the supplemental material and below. The protein sequences of β-lactamases were obtained from the Beta-Lactamase DataBase (www.bldb.eu) ([47]). Expression of the β-lactamases was confirmed by verifying decreased susceptibility to example test antibiotics that are known substrates of the enzymes. E. coli DH5α carrying pTU501, which expressed only the TEM-1 signal sequence from the bla promoter, was used as a control. The plasmid sequences are available through GenBank (Table S2).
The in vitro antibacterial activity of the β-lactams alone or in combination with the BLIs was determined in cation-adjusted Mueller-Hinton broth (CAMHB) microdilution assays according to CLSI recommendations ([51]). […]. The inocula for the broth microdilution assays were prepared by the broth culture method ([51]). […]

[3] = test system: Enterobacterales clinical isolates; assay: MIC distributions in panels of clinical isolates (MIC50, MIC90, % susceptible); assay type: cell-based
Procedure: as §1, §2

[4] = test system: cefepime-nonsusceptible Enterobacterales isolates; parameters: method as in earlier work; conditions: taniborbactam fixed at 4 μg/ml in combination; cited from earlier work
[5] = Enterobacter cloacae, strain 20, p99 AmpC/CTX-M-27/SHV-12/ACT-2/TEM-135, read-out: MIC
[6] = Enterobacter cloacae, strain 116723, p99 AmpC/TEM-1/CTX-M-3, read-out: MIC
[7] = Enterobacter cloacae, strain 138212, p99 AmpC/SHV-71/TEM-1, read-out: MIC
[8] = Enterobacter cloacae, strain 874381, CTX-M-15, read-out: MIC
[9] = Enterobacter cloacae, strain 875134, TEM-1/CTX-M-3/DHA-1, read-out: MIC
[10] = Enterobacter cloacae, strain 891849, TEM-1, read-out: MIC
[11] = Enterobacter cloacae, strain 920937, VIM-1, read-out: MIC
[12] = Enterobacter cloacae, strain 937223, SHV-12/CTX-M-9/ACT-7, read-out: MIC
[13] = Enterobacter cloacae, strain 938772, TEM-OSBL/CTX-M-15/ACT-30, read-out: MIC
[14] = Enterobacter cloacae, strain 976004, OXA-48, read-out: MIC
[15] = Enterobacter cloacae, strain 1249072, TEM-OSBL(b)/VIM-1, read-out: MIC
[16] = Enterobacter cloacae, strain 1365477, TEM-OSBL(b)/VIM-1, read-out: MIC
[17] = Wild-type, basal level Class C and OprD downregulation with RND efflux upregulation (n=14)
[18] = Escherichia coli, ACT-17 (class C)
[19] = Escherichia coli, ACT-C189 (P99 AmpC) (class C)
[20] = Escherichia coli, CMY-2 (class C)
[21] = Escherichia coli, CTX-M-2 (class A)
[22] = Escherichia coli, CTX-M-15 (class A)
[23] = Escherichia coli, GES-5 (class A)
[24] = Escherichia coli, GIM-1 (class B)
[25] = Escherichia coli, IMP-1 (class B)
[26] = Escherichia coli, KPC-2 (class A)
[27] = Escherichia coli, KPC-3(A177E/D179Y) (class A)
[28] = Escherichia coli, KPC-3(D179Y) (class A)
[29] = Escherichia coli, KPC-3(D179Y/T243M) (class A)
[30] = Escherichia coli, KPC-3(T243A) (class A)
[31] = Escherichia coli, KPC-3(V240G) (class A)
[32] = Escherichia coli, KPC-3 (class A)
[33] = Escherichia coli, NDM-1 (class B)
[34] = Escherichia coli, NDM-5 (class B)
[35] = Escherichia coli, NDM-7 (class B)
[36] = Escherichia coli, OXA-48 (class D)
[37] = Escherichia coli, OXA-162 (class D)
[38] = Escherichia coli, OXA-163 (class D)
[39] = Escherichia coli, OXA-181 (class D)
[40] = Escherichia coli, OXA-232 (class D)
[41] = Escherichia coli, PER-1 (class A)
[42] = Escherichia coli, PER-2 (class A)
[43] = Escherichia coli, SHV-5 (class A)
[44] = Escherichia coli, SPM-1 (class B)
[45] = Escherichia coli, TEM-10 (class A)
[46] = Escherichia coli, TEM-24 (class A)
[47] = Escherichia coli, TEM-72 (class A)
[48] = Escherichia coli, VEB-9 (class A)
[49] = Escherichia coli, VIM-1 (class B)
[50] = Escherichia coli, VIM-2 (class B)
[51] = Escherichia coli, VIM-4 (class B)
[52] = Escherichia coli, Vector control

Structure (SMILES): CC(C)(O/N=C(\C(=O)N[C@@H]1C(=O)N2C(C(=O)[O-])=C(C[n+]3ccccc3)CS[C@H]12)c1csc(N)n1)C(=O)O [CAZ]
- MIC (E. cloacae): 64 µg/mL
- MIC (E. cloacae; [5]): ≥ 256 µg/mL
- MIC (E. cloacae; [6]): 128 µg/mL
- MIC (E. cloacae; [7]): 128 µg/mL
- MIC (E. cloacae; [8]): ≥ 256 µg/mL
- MIC (E. cloacae; [9]): 64 µg/mL
- MIC (E. cloacae; [10]): 128 µg/mL
- MIC (E. cloacae; [11]): ≥ 256 µg/mL
- MIC (E. cloacae; [12]): ≥ 256 µg/mL
- MIC (E. cloacae; [13]): 128 µg/mL
- MIC (E. cloacae; [14]): 128 µg/mL
- MIC (E. cloacae; [15]): ≥ 256 µg/mL
- MIC (E. cloacae; [16]): ≥ 256 µg/mL
- % Susceptible isolates [1]: 0%
- % Susceptible isolates ([1]; PDC variants (n = 10)): 0%
- % Susceptible isolates [1, 17]: 35.7%
- MIC [2, 18]: 8 µg/mL
- MIC [2, 19]: 256 µg/mL
- MIC [2, 20]: 512 µg/mL
- MIC [2, 21]: 32 µg/mL
- MIC [2, 22]: 128 µg/mL
- MIC [2, 23]: 64 µg/mL
- MIC [2, 24]: > 128 µg/mL
- MIC [2, 25]: 1020 µg/mL
- MIC [2, 26]: 64 µg/mL
- MIC [2, 27]: 1020 µg/mL
- MIC [2, 28]: 1020 µg/mL
- MIC [2, 29]: 1020 µg/mL
- MIC [2, 30]: 256 µg/mL
- MIC [2, 31]: 1020 µg/mL
- MIC [2, 32]: 512 µg/mL
- MIC [2, 33]: 1020 µg/mL
- MIC [2, 34]: > 1020 µg/mL
- MIC [2, 35]: > 1020 µg/mL
- MIC [2, 36]: 1 µg/mL
- MIC [2, 37]: 2 µg/mL
- MIC [2, 38]: 256 µg/mL
- MIC [2, 39]: 1 µg/mL
- MIC [2, 40]: 1 µg/mL
- MIC [2, 41]: 1020 µg/mL
- MIC [2, 42]: 1020 µg/mL
- MIC [2, 43]: 1020 µg/mL
- MIC [2, 44]: 1020 µg/mL
- MIC [2, 45]: 1020 µg/mL
- MIC [2, 46]: 1020 µg/mL
- MIC [2, 47]: 1020 µg/mL
- MIC [2, 48]: 1020 µg/mL
- MIC [2, 49]: 1020 µg/mL
- MIC [2, 50]: 128 µg/mL
- MIC [2, 51]: 256 µg/mL
- MIC [2, 52]: 0.25 µg/mL
- MIC ([2]; Vector control): 0.5 µg/mL
- % Susceptible isolates ([3]; ESBL (n = 20)): 15%
- % Susceptible isolates ([3]; KPC (n = 20)): 0%
- % Susceptible isolates ([3]; MBL (n = 20)): 0%
- % Susceptible isolates ([3]; Mixed Class A and C (n = 22)): 9.1%
- % Susceptible isolates ([3]; OXA-48/48-like (n = 20)): 15%

Structure (SMILES): Cn1c(N)c(NC(=O)NCCN)c[n+]1CC1=C(C(=O)O)N2C(=O)[C@@H](NC(=O)/C(=N\OC(C)(C)C(=O)[O-])c3nsc(N)n3)[C@H]2SC1 [TOL]
- MIC (E. cloacae; [5]): 32 µg/mL
- MIC (E. cloacae; [6]): 32 µg/mL
- MIC (E. cloacae; [7]): 32 µg/mL
- MIC (E. cloacae; Enterobacter cloacae, strain 847426, KPC, read-out: MIC): ≥ 256 µg/mL
- MIC (E. cloacae; [8]): ≥ 256 µg/mL
- MIC (E. cloacae; [9]): 64 µg/mL
- MIC (E. cloacae; [10]): 32 µg/mL
- MIC (E. cloacae; [11]): ≥ 256 µg/mL
- MIC (E. cloacae; [12]): 32 µg/mL
- MIC (E. cloacae; [13]): 128 µg/mL
- MIC (E. cloacae; [14]): ≥ 256 µg/mL
- MIC (E. cloacae; [15]): ≥ 256 µg/mL
- MIC (E. cloacae; [16]): ≥ 256 µg/mL
- MIC (E. cloacae; Enterobacter cloacae, strain CDC-0053, KPC-3/TEM-1, read-out: MIC): 128 µg/mL
- MIC (E. cloacae; Enterobacter cloacae, strain CDC-0163, KPC/CTX-M-1/ACT/MIR, read-out: MIC): 128 µg/mL
- % Susceptible isolates ([1]; GES/KPC/VIM carbapenemase producing (n = 17)): 0%
- % Susceptible isolates ([1]; PDC variants (n = 10)): 0%
- % Susceptible isolates [1, 17]: 85.7%
- % Susceptible isolates ([3]; ESBL (n = 20)): 0%
- % Susceptible isolates ([3]; KPC (n = 20)): 0%
- % Susceptible isolates ([3]; MBL (n = 20)): 0%
- % Susceptible isolates ([3]; Mixed Class A and C (n = 22)): 0%
- % Susceptible isolates ([3]; OXA-48/48-like (n = 20)): 5%

Structure (SMILES): CO/N=C(\C(=O)N[C@@H]1C(=O)N2C(C(=O)[O-])=C(C[N+]3(C)CCCC3)CS[C@H]12)c1csc(N)n1 [FEP]
- MIC90 [4]: > 128 µg/mL
- MIC [2, 18]: 4 µg/mL
- MIC [2, 19]: 8 µg/mL
- MIC [2, 20]: 2 µg/mL
- MIC [2, 21]: 128 µg/mL
- MIC [2, 22]: 128 µg/mL
- MIC [2, 23]: 4 µg/mL
- MIC [2, 24]: 4 µg/mL
- MIC [2, 25]: 64 µg/mL
- MIC [2, 26]: 64 µg/mL
- MIC [2, 27]: 16 µg/mL
- MIC [2, 28]: 32 µg/mL
- MIC [2, 29]: 16 µg/mL
- MIC [2, 30]: 64 µg/mL
- MIC [2, 31]: 256 µg/mL
- MIC [2, 32]: 128 µg/mL
- MIC [2, 33]: 256 µg/mL
- MIC [2, 34]: 512 µg/mL
- MIC [2, 35]: 512 µg/mL
- MIC [2, 36]: 2 µg/mL
- MIC [2, 37]: 8 µg/mL
- MIC [2, 38]: 128 µg/mL
- MIC [2, 39]: 2 µg/mL
- MIC [2, 40]: 2 µg/mL
- MIC [2, 41]: 512 µg/mL
- MIC [2, 42]: 256 µg/mL
- MIC [2, 43]: 128 µg/mL
- MIC [2, 44]: 128 µg/mL
- MIC [2, 45]: 8 µg/mL
- MIC [2, 46]: 2 µg/mL
- MIC [2, 47]: 32 µg/mL
- MIC [2, 48]: 128 µg/mL
- MIC [2, 49]: 128 µg/mL
- MIC [2, 50]: 16 µg/mL
- MIC [2, 51]: 32 µg/mL
- MIC [2, 52]: 0.12 µg/mL

From paper PMC7038240 (Antimicrobial Agents and Chemotherapy, 2020)
